Series [1] can be described thus: Kinetic parameter of antibody 48G7 in 10 mM Tris HCl, 50 mM NaCl, pH 8.27.
The nature of series [2]: Dissociation constant from ESR titration experiments. The format is physicochemical.
Series [3] can be described thus: Compound was evaluated for the inhibition of antibody (Antibody 48G7) catalyzed reaction.

`CC(=O)Oc1ccc([N+](=O)[O-])cc1` yielded a k cat in series [1] of 0.0633 s⁻¹.
By Km is commonly meant the concentration of substrate that gives half-maximal velocity. On to `COC(=O)CCCOC(=O)Oc1ccc([N+](=O)[O-])cc1`, for which, in series [1], the Michaelis constant (Km) was 360 µM and the k cat was 0.437 s⁻¹.
On the same counts, the results for `COC(=O)CCCC(=O)Oc1ccc([N+](=O)[O-])cc1` are 300 µM and 0.367 s⁻¹.
One may read the Kd as the constant that tells how readily two partners part at equilibrium. Read a low Kd as higher affinity. Turning to `CC1(C)CC(OP(=O)(O)Oc2ccc([N+](=O)[O-])cc2)CC(C)(C)N1[O]`, in series [2], the Kd is 4.3 µM.
Turning to `COC(=O)Oc1ccc([N+](=O)[O-])cc1`, in series [1], the Km amounted to 430 µM and the k cat is 0.123 s⁻¹.
Regarding `CC1(C)CC(OP(=O)(O)Oc2ccc([N+](=O)[O-])cc2)C(C)(C)N1[O]` (stereo not given), in series [2], the Kd worked out at 6.4 µM.
A word on the Ki: it is a dissociation constant, usually derived from enzyme kinetics or from competition with a known ligand. Read a high Ki as lower affinity. With `Cc1cccc(P(=O)(O)O)c1[N+](=O)[O-]` [METHYLNITROPHENYLPHOSPHONATE], the affinity in series [3] corresponds to a Ki of 0.56 µM.
